Where two headings read alike, the source gives them in different places.
How the values were obtained:
human KHK-C = human KHK-C (Homo sapiens (Human), UniProt P50053); test: KHK Biochemical Assay (IC50), ADP-Glo, KHK-C; settings: average of at least two separate assays
Outline: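 His-tagged enzyme expressed in BL21 (DE3), Ni-NTA purified. Compounds, serially diluted 1:3 in DMSO, pre-incubated 30 min with enzyme in 50 mM Hepes pH 7.4, 140 mM KCl, 5 mM MgCl2, 0.01% Triton-X, then ATP and fructose added; 4 h at room temperature. ADP formation read by ADP-Glo luminescence.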

HepG2 cells = test: F1P Cell-Based Assay (EC50), 13C6-fructose-1-phosphate in HepG2 cells (cell culture medium or 50% human plasma)
[1] = Homo sapiens, HepG2, HepG2 cells, 50% human plasma, read-out: F1P 50% HP EC50
[2] = Homo sapiens, HepG2, read-out: F1P 10% FBS EC50, HepG2 cells, cell culture medium (10% FBS)
[3] = HepG2 cells, 50% human plasma, read-out: F1P 50% HP EC50
[4] = read-out: F1P 10% FBS EC50, HepG2 cells, cell culture medium (10% FBS)

Sequence of human KHK-C (P50053 whole entry): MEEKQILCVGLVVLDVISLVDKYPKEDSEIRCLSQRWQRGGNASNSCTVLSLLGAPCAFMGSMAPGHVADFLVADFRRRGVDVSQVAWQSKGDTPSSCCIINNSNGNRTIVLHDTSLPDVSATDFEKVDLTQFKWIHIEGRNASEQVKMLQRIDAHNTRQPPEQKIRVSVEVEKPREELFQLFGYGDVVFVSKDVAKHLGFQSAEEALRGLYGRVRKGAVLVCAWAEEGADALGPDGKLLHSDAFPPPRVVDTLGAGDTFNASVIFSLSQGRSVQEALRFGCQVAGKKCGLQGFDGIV

| SMILES | IC50 (human KHK-C) | EC50 (HepG2 cells; [1]) | EC50 (HepG2 cells; [2]) | EC50 (HepG2 cells; Homo sapiens, HepG2, read-out: F1P 10% FBS EC50) | EC50 (HepG2 cells; Homo sapiens, HepG2, read-out: F1P 50% HP EC50) | EC50 (HepG2 cells; [3]) | EC50 (HepG2 cells; [4]) | IC50 (human KHK-C; ADP-Glo) |
| --- | --- | --- | --- | --- | --- | --- | --- | --- |
| C[C@H]1[C@H](F)CN1c1nc(-c2cccc(S(C)(=N)=O)c2)c2c(n1)C(F)(F)CC2 (stereo partly drawn) [Example 710, (3-(7,7-difluoro-2-((2S,3R)-3-fluoro-2-methylazetidin-1-yl)-6,7-dihydro-5H-cyclopenta[d]pyrimidin-4-yl)phenyl)(imino)(methyl)-λ^6-sulfanone] | 7.2 nM | 42.6 nM | 12.9 nM | – | – | – | – | – |
| C[C@H]1[C@H](O)CN1c1nc(-c2ccc(F)c(S(C)(=N)=O)c2)c2c(n1)C(F)(F)CC2 (stereo partly drawn) [Example 723, (5-(7,7-difluoro-2-((2S,3R)-3-hydroxy-2-methylazetidin-1-yl)-6,7-dihydro-5H-cyclopenta[d]pyrimidin-4-yl)-2-fluorophenyl)(imino)(methyl)-λ^6-sulfanone] | 19 nM | 41.3 nM | 44.3 nM | – | – | – | – | – |
| C[C@H]1[C@H](O)CN1c1nc(-c2cc(F)cc(S(C)(=N)=O)c2)c2c(n1)C(F)(F)CC2 (some centres unmarked) [Example 724] | 25.4 nM | – | – | 166 nM | 234 nM | – | – | – |
| C[C@H]1CCN1c1nc2c(c(-c3ccc4c(c3)S(=N)(=O)CCO4)n1)CCC2 (some centres unmarked) [Example 726] | 16.7 nM | 306 nM | 62.1 nM | – | – | – | – | – |
| C[C@H]1CCN1c1nc(-c2cc3c(c(CNS(C)(=O)=O)c2)OCC3)c2c(n1)C(F)(F)CC2 [Example 762, N-[[5-[7,7-difluoro-2-[(2S)-2-methylazetidin-1-yl]-5,6-dihydrocyclopenta[d]pyrimidin-4-yl]-2,3-dihydrobenzofuran-7-yl]methyl]methanesulfonamide] | 2 nM | 159 nM | 11.4 nM | – | – | – | – | – |
| CCOc1ccc(-c2nc(N3C[C@@H](O)[C@@H]3C)nc3c2CCC3(F)F)cc1S(N)(=O)=O [Example 764, 5-[7,7-difluoro-2-[(2S,3R)-3-hydroxy-2-methyl-azetidin-1-yl]-5,6-dihydrocyclopenta[d]pyrimidin-4-yl]-2-ethoxy-benzenesulfonamide] | 5.5 nM | 22.1 nM | 8.9 nM | – | – | – | – | – |
| C[C@H]1CCN1c1nc(-c2ccc3c(c2)CNC3)c2c(n1)C(F)(F)CC2 [Example 765, 7,7-difluoro-4-isoindolin-5-yl-2-[(2S)-2-methylazetidin-1-yl]-5,6-dihydrocyclopenta[d]pyrimidine] | 7.7 nM | 53.2 nM | 15.5 nM | – | – | – | – | – |
| CC(=O)NCc1cc(-c2nc(N3C[C@@H](O)[C@@H]3C)nc3c2CCC3(F)F)cc2c1OCC2 [Example 766, N-[[5-[7,7-difluoro-2-[(2S,3R)-3-hydroxy-2-methyl-azetidin-1-yl]-5,6-dihydrocyclopenta[d]pyrimidin-4-yl]-2,3-dihydrobenzofuran-7-yl]methyl]acetamide] | 11.8 nM | – | – | – | – | 150 nM | 38.4 nM | – |
| CC(=O)NC1COc2cc(-c3nc(N4CC[C@@H]4C)nc4c3CCC4(F)F)ccc21 (stereo partly drawn) [Example 767, N-[6-[7,7-difluoro-2-[(2S)-2-methylazetidin-1-yl]-5,6-dihydrocyclopenta[d]pyrimidin-4-yl]-2,3-dihydrobenzofuran-3-yl]acetamide] | 4.8 nM | 97.9 nM | 20.9 nM | – | – | – | – | – |
| CNC1(c2ccc(-c3nc(N4C[C@@H](F)[C@@H]4C)nc4c3CCC4(F)F)cc2)CS(=O)(=O)C1 [Example 770, 3-(4-(7,7-difluoro-2-((2S,3R)-3-fluoro-2-methylazetidin-1-yl)-6,7-dihydro-5H-cyclopenta[d]pyrimidin-4-yl)phenyl)-3-(methylamino)thietane 1,1-dioxide] | 5.7 nM | 156 nM | 44.3 nM | – | – | – | – | – |
| C[C@H]1[C@H](F)CN1c1nc(-c2ccc(C3(N)CS(=O)(=O)C3)cc2)c2c(n1)C(F)(F)CC2 [Example 772] | 1 nM | 33.8 nM | 10.5 nM | – | – | – | – | – |
| C[C@H]1CCN1c1nc(-c2ccc(C(N)CS(C)(=O)=O)cc2)c2c(n1)C(F)(F)CC2 (stereo partly drawn) [Example 774, 1-(4-(7,7-difluoro-2-((S)-2-methylazetidin-1-yl)-6,7-dihydro-5H-cyclopenta[d]pyrimidin-4-yl)phenyl)-2-(methylsulfonyl)ethan-1-amine] | 2.1 nM | – | 11.8 nM | – | – | – | – | – |
| CS(=O)(=O)CC(N)c1ccc(-c2nc(N3CC[C@@H]3CF)nc3c2CCC3(F)F)cc1 (stereo partly drawn) [Example 780, 1-(4-(7,7-difluoro-2-((R)-2-(fluoromethyl)azetidin-1-yl)-6,7-dihydro-5H-cyclopenta[d]pyrimidin-4-yl)phenyl)-2-(methylsulfonyl)ethan-1-amine] | 4.8 nM | 35 nM | 22.8 nM | – | – | – | – | – |
| NC1(c2ccc(-c3nc(N4CC(F)(F)C4CO)nc4c3CCC4(F)F)cc2)CS(=O)(=O)C1 (centres unmarked) [Example 782, 3-amino-3-(4-(2-(3,3-difluoro-2-(hydroxymethyl)azetidin-1-yl)-7,7-difluoro-6,7-dihydro-5H-cyclopenta[d]pyrimidin-4-yl)phenyl)thietane 1,1-dioxide] | 6.3 nM | 130 nM | 135 nM | – | – | – | – | – |
| C[C@H]1[C@@H](F)CN1c1nc(-c2ccc(C3(N)CS(=O)(=O)C3)cc2)c2c(n1)C(F)(F)CC2 [Example 785] | 0.7 nM | 23.7 nM | 15.2 nM | – | – | – | – | – |
| C[C@H]1[C@H](O)CN1c1nc([C@H]2CC(NS(C)(=O)=O)c3ccccc3O2)c2c(n1)C(F)(F)CC2 (stereo partly drawn) [Example 786, N—((R)-(7,7-difluoro-2-((2S,3R)-3-hydroxy-2-methylazetidin-1-yl)-6,7-dihydro-5H-cyclopenta[d]pyrimidin-4-yl)chroman-4-yl)methanesulfonamide] | 6.1 nM | – | – | – | – | 97.6 nM | 58 nM | – |
| C[C@H]1CCN1c1nc(-c2cccc(C3(N)CS(=O)(=O)C3)c2)c2c(n1)C(F)(F)CC2 [Example 790, (S)-3-amino-3-(3-(7,7-difluoro-2-(2-methylazetidin-1-yl)-6,7-dihydro-5H-cyclopenta[d]pyrimidin-4-yl)phenyl)thietane 1,1-dioxide] | 14.2 nM | 104 nM | 29 nM | – | – | – | – | – |
| N#CCC1CCN1c1nc(-c2ccc3c(c2)S(=O)(=O)CCNC3)c2c(n1)C(F)(F)CC2 (centres unmarked) [Example 791, 2-(1-(4-(1,1-dioxido-2,3,4,5-tetrahydrobenzo[f][1,4]thiazepin-8-yl)-7,7-difluoro-6,7-dihydro-5H-cyclopenta[d]pyrimidin-2-yl)azetidin-2-yl)acetonitrile] | 80.5 nM | > 500 nM | 316 nM | – | – | – | – | – |
| CS(=O)(=O)N[C@H]1COc2cc(-c3nc(N4CC(F)(F)C4CO)nc4c3CCC4(F)F)ccc21 (stereo partly drawn) [Example 792, N-((3R)-6-(2-(3,3-difluoro-2-(hydroxymethyl)azetidin-1-yl)-7,7-difluoro-6,7-dihydro-5H-cyclopenta[d]pyrimidin-4-yl)-2,3-dihydrobenzofuran-3-yl)methanesulfonamide] | 2.2 nM | 140 nM | 57.7 nM | – | – | – | – | – |
| C[C@H]1[C@H](O)CN1c1nc(-c2ccc(C3(N)CCS(=O)(=O)C3)cc2)c2c(n1)C(F)(F)CC2 (some centres unmarked) [Example 793] | – | 75.5 nM | 55.6 nM | – | – | – | – | 4.8 nM |
| C[C@H]1[C@H](O)CN1c1nc(-c2ccc3c(c2)C(F)(F)CNC3)c2c(n1)C(F)(F)CC2 [Example 807, (2S,3R)-1-[4-(4,4-difluoro-2,3-dihydro-1H-isoquinolin-6-yl)-7,7-difluoro-5,6-dihydrocyclopenta[d]pyrimidin-2-yl]-2-methyl-azetidin-3-ol] | – | 99.4 nM | 35.2 nM | – | – | – | – | 15.7 nM |
